According to US9201014B2, “Development of photostable near-IR cyanine dyes for in vivo imaging” (National University of Singapore, priority 2010, dated 2015):

Columns and labels:
[1] = Absorbance and fluorescence maximum wavelengths and quantum yields of the CyNA library; assay type: physicochemical; conditions: for λabs, absorbance maximum wavelength / λem, fluorescence maximum wavelength: CyNA library; for φ, quantum yield: in DMSO, Cardiogreen as standard
Method: Since the k values of the different CyNA compounds indicated some dependency on the chemical structure of the amine, the CyNA scaffold was derivatized with a broad range of primary amines (FIGS. 4A-4C). The fluorescence properties of the 80-member CyNA library were measured. The absorption maximum wavelengths ranged from 802 nm to 806 nm, emission maximum wavelengths ranged from 817 nm to 823 nm, and the average quantum yield was approximately 0.10 (Table 2).
All the chemicals (building block amines plus others) and solvents were purchased from Sigma Aldrich, Alfa Aesar, Fluka, MERCK or Acros, and used without further purification. ^1H-NMR and ^13C-NMR spectra were recorded on Bruker Avance 300 NMR and 500 NMR spectrometers, and chemical shifts are expressed in parts per million (ppm). High-resolution mass spectrometry (HRMS) data was recorded on a Micromass VG 7035. Photobleaching experiments were performed using a UVP Blak-Ray® B-100AP high intensity UV lamp (100 W, 365 nm) Spectroscopic and quantum yield data were measured on a SpectraMax M2 spectrophotometer (Molecular Devices), and the data analysis was performed using GraphPrism 5.0. Photobleaching measurements were performed using an Eclipse Ti-U Nikon microscope (filter cube: 750/800) attached to Ti:sappire oscillator that operated in continuous wave mode, and the data was processed using the software NIS-Elements 3.10. In vivo images were taken in an IVIS Spectrum imaging system (Caliper Life Sciences).

[2] = Primary screening of photostability of the CyNA library (time-course fluorescence, 8 h); assay type: physicochemical; design: F/Fo, fluorescent intensity at 8 hours vs 0 hours: unit: %; conditions: 10 μM in HEPES 100 mM pH 7.4, 2% DMSO
Method: As a primary evaluation of photo stability, the decrease in fluorescence intensity of the 80 CyNA compounds was measured (see Table 2). The average decrease in fluorescence intensity after 8 hours of irradiation by a xenon lamp was approximately 18%. A subset of the most photostable compounds (i.e., F/Fo reported in Table 2 was greater than or equal to 95) was examined under stronger irradiation in various buffers.
10-μM CyNA solutions in 100 mM HEPES buffer (pH 7.4) containing 2% DMSO were placed in a 96-well black plate, and fluorescence intensity measurements were recorded every 10 minutes for a total period of 8 hours (excitation-emission: 790-820 nm). A subset of fourteen compounds selected according to their F8h/Fo quotients, quantum yields and maximum relative fluorescence units (RFU) values was further evaluated in a secondary screening

Row | Structure (SMILES) | λabs, absorbance maximum wavelength [1] [nm] | λem, fluorescence maximum wavelength [1] [nm] | φ, quantum yield [1] | F/Fo, fluorescent intensity at 8 hours vs 0 hours [2] | max RFU, maximum relative fluorescence units [2]
1 | CCCN1/C(=C/C=C2\CCCC(/C=C/C3=[N+](CCC)c4ccccc4C3(C)C)=C2N(CCCN2CCCC2=O)C(C)=O)C(C)(C)c2ccccc21 [CyNA-11] | 802 | 820 | 0.11 | 90 | 1250.1
2 | CCCCCCCCCCCCCCN(C(C)=O)C1=C(/C=C/C2=[N+](CCC)c3ccccc3C2(C)C)CCC/C1=C\C=C1\N(CCC)c2ccccc2C1(C)C [CyNA-28] | 804 | 818 | 0.05 | 87 | 23.9
3 | CCCN1/C(=C/C=C2\CCCC(/C=C/C3=[N+](CCC)c4ccccc4C3(C)C)=C2N(Cc2ccc3c(c2)OCO3)C(C)=O)C(C)(C)c2ccccc21 [CyNA-49] | 804 | 818 | 0.10 | 95 | 851.3
4 | CCCCCCCCCCCCCN(C(C)=O)C1=C(/C=C/C2=[N+](CCC)c3ccccc3C2(C)C)CCC/C1=C\C=C1\N(CCC)c2ccccc2C1(C)C [CyNA-55] | 804 | 819 | 0.13 | 100 | 162.3
5 | CCCN1/C(=C/C=C2\CCCC(/C=C/C3=[N+](CCC)c4ccccc4C3(C)C)=C2N(Cc2c(F)cccc2F)C(C)=O)C(C)(C)c2ccccc21 [CyNA-80] | 804 | 817 | 0.08 | 93 | 734.9
6 | CCCN1/C(=C/C=C2\CCCC(/C=C/C3=[N+](CCC)c4ccccc4C3(C)C)=C2N(CCC(C)(C)C)C(C)=O)C(C)(C)c2ccccc21 [CyNA-92] | 805 | 821 | 0.09 | 64 | 420.2
7 | CCCN(C(C)=O)C1=C(/C=C/C2=[N+](CCC)c3ccccc3C2(C)C)CCC/C1=C\C=C1\N(CCC)c2ccccc2C1(C)C [CyNA-95] | 806 | 818 | 0.09 | 91 | 1027.9
8 | CCCN1/C(=C/C=C2\CCCC(/C=C/C3=[N+](CCC)c4ccccc4C3(C)C)=C2N(CCC(c2ccccc2)c2ccccc2)C(C)=O)C(C)(C)c2ccccc21 [CyNA-100] | 804 | 819 | 0.08 | 63 | 333.8
9 | CCCN1/C(=C/C=C2\CCCC(/C=C/C3=[N+](CCC)c4ccccc4C3(C)C)=C2N(Cc2ccccc2C)C(C)=O)C(C)(C)c2ccccc21 [CyNA-101] | 806 | 822 | 0.08 | 86 | 693.9
10 | CCCN1/C(=C/C=C2\CCCC(/C=C/C3=[N+](CCC)c4ccccc4C3(C)C)=C2N(CCc2cccc(OC)c2)C(C)=O)C(C)(C)c2ccccc21 [CyNA-102] | 805 | 822 | 0.14 | 63 | 998.9
11 | CCCN1/C(=C/C=C2\CCCC(/C=C/C3=[N+](CCC)c4ccccc4C3(C)C)=C2N(Cc2ccccc2OCC)C(C)=O)C(C)(C)c2ccccc21 [CyNA-103] | 804 | 821 | 0.14 | 92 | 1106.6
12 | CCCN1/C(=C/C=C2\CCCC(/C=C/C3=[N+](CCC)c4ccccc4C3(C)C)=C2N(C(C)=O)C2CCN(Cc3ccccc3)CC2)C(C)(C)c2ccccc21 [CyNA-107] | 803 | 820 | 0.07 | 50 | 275.3
13 | CCCN1/C(=C/C=C2\CCCC(/C=C/C3=[N+](CCC)c4ccccc4C3(C)C)=C2N(Cc2cccc(OC)c2OC)C(C)=O)C(C)(C)c2ccccc21 [CyNA-124] | 803 | 820 | 0.15 | 100 | 1334.2
14 | CCCN1/C(=C/C=C2\CCCC(/C=C/C3=[N+](CCC)c4ccccc4C3(C)C)=C2N(CCCCc2ccccc2)C(C)=O)C(C)(C)c2ccccc21 [CyNA-131] | 804 | 819 | 0.13 |  | 259.8
15 | CCCN1/C(=C/C=C2\CCCC(/C=C/C3=[N+](CCC)c4ccccc4C3(C)C)=C2N(CCCOCC)C(C)=O)C(C)(C)c2ccccc21 [CyNA-167] | 804 | 818 | 0.10 | 92 | 1031.8
16 | CCCN1/C(=C/C=C2\CCCC(/C=C/C3=[N+](CCC)c4ccccc4C3(C)C)=C2N(C(C)=O)C2CCCC2)C(C)(C)c2ccccc21 [CyNA-180] | 805 | 821 | 0.14 | 91 | 991.3
17 | CCCN1/C(=C/C=C2\CCCC(/C=C/C3=[N+](CCC)c4ccccc4C3(C)C)=C2N(Cc2ccc(OC)cc2OC)C(C)=O)C(C)(C)c2ccccc21 [CyNA-181] | 805 | 821 | 0.14 | 66 | 996.8
